Test results: ChEMBL document CHEMBL5370674, “Optimization of mTOR Inhibitors Using Property-Based Drug Design and Free-Wilson Analysis for Improved In Vivo Efficacy” (ACS Med Chem Lett, 2023)

Key:
[1] = Apparent intrinsic clearance in human liver microsomes; format: ADME, Microsome; details: read-out: CLH(app)
[2] = target: Cytochrome P450 2C9 (Homo sapiens, UniProt P11712); assay: Inhibition of CYP2C9 (unknown origin); format: ADME
[3] = target: T1, Cytochrome P450 2C8 (Homo sapiens, UniProt P10632); assay: Inhibition of CYP2C8 (unknown origin); format: ADME
T1 sequence (P10632 whole entry): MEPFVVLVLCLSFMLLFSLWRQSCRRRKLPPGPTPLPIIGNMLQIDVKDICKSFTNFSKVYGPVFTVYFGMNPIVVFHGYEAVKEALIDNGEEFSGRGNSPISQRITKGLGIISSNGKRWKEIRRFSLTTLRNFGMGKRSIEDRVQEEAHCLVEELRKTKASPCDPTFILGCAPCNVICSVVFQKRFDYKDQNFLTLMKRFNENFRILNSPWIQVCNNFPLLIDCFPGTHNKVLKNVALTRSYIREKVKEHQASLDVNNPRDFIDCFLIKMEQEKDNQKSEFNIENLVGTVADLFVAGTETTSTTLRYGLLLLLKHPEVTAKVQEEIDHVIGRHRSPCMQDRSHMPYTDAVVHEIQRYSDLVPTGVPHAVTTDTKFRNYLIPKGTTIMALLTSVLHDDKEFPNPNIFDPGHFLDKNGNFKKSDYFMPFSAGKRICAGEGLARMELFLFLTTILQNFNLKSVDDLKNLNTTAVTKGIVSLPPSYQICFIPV

[4] = target: T2, Cytochrome P450 1A2 (Homo sapiens, UniProt P05177); assay: Inhibition of CYP1A2 (unknown origin); format: ADME
T2 sequence (P05177 whole entry): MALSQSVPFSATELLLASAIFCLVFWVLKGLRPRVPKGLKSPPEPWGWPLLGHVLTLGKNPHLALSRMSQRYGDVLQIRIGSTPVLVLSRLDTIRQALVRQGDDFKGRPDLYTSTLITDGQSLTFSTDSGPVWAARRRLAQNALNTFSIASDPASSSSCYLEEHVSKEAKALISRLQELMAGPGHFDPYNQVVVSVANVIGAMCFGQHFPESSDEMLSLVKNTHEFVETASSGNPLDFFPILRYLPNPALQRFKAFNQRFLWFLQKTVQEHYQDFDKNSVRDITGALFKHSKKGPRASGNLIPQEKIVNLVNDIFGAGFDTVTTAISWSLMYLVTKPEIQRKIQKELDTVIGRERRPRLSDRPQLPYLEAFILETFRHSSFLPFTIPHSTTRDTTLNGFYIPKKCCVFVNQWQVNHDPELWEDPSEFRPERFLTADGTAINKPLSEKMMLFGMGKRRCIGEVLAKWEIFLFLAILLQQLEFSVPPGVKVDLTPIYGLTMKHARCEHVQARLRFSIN

[5] = target: Cytochrome P450 2C19 (Homo sapiens, UniProt P33261); assay: Inhibition of CYP2C19 (unknown origin); format: ADME
[6] = target: Cytochrome P450 2D6 (Homo sapiens, UniProt P10635); assay: Inhibition of CYP2D6 (unknown origin); format: ADME
[7] = target: Cytochrome P450 3A4 (Homo sapiens, UniProt P08684); assay: Inhibition of CYP3A4 (unknown origin); format: ADME
[8] = Fraction absorbed in rat at 4 mg/kg, po; format: ADME, organism-based; details: in vivo, read-out: Fabs
[9] = Toxicity in Balb/c Nu/Nu mouse xenografted with human A549 cells assessed as reduction in body weight at 2 to 6 mg/kg, po administrated for 14 days; format: organism-based; parameters: scale not given: the % may be the effect or the level left; details: in vivo, 336 h, dose 2-6 mg/kg, time 14 day
[10] = test system: A549; assay: Antitumor activity against human A549 cells xenografted in BALB/c Nu/Nu mouse assessed as tumor growth inhibition at 2 mg/kg, po administrated for 14 days relative to control; format: functional; details: A549, 336 h, time 14 day, read-out: TGI
[11] = Intrinsic clearance in human liver microsomes; format: ADME, Microsome; details: read-out: CLH
[12] = Toxicity in Balb/c Nu/Nu mouse xenografted with human A549 cells assessed as reduction in body weight at 30 mg/kg, po administrated for 14 days; format: organism-based; parameters: scale not given: the % may be the effect or the level left; details: in vivo, 336 h, time 14 day
[13] = test system: A549; assay: Antitumor activity against human A549 cells xenografted in BALB/c Nu/Nu mouse assessed as tumor growth inhibition at 30 mg/kg, po administrated for 14 days relative to control; format: functional; details: A549, 336 h, time 14 day, read-out: TGI
[14] = Selectivity ratio of IC50 for inhibition of PI3Kalpha (unknown origin) to IC50 for inhibition of recombinant human GST-tagged mTOR (1360 to 2549 residues) expressed in insect cells

Sequence of Cytochrome P450 2D6 (P10635 whole entry): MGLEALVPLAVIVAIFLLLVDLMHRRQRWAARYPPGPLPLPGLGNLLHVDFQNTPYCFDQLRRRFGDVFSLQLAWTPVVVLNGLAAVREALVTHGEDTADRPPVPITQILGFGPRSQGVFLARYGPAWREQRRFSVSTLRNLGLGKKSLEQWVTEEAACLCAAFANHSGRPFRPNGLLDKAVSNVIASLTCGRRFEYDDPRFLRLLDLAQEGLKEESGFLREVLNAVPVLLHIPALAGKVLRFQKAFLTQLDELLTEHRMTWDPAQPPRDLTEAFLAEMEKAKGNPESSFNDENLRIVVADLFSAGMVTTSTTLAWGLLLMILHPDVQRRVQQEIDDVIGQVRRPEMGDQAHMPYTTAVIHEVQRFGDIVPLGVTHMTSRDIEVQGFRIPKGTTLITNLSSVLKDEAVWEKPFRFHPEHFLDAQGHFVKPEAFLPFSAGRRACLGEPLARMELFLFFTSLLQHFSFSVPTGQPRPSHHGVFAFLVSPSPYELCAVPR
Sequence of Cytochrome P450 2C9 (P11712 whole entry): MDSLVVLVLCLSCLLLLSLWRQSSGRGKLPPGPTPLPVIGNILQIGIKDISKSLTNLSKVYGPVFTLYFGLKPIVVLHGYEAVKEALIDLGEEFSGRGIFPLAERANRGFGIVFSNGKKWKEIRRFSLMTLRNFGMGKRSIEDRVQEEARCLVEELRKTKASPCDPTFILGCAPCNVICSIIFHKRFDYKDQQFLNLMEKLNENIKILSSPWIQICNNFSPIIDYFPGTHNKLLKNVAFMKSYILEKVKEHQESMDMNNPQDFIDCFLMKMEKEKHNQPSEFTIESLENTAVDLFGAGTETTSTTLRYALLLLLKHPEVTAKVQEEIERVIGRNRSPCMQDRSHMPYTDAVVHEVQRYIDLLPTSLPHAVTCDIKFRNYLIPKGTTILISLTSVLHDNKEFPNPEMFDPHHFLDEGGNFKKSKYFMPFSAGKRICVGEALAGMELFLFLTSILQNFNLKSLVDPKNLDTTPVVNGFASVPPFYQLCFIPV
Sequence of Cytochrome P450 3A4 (P08684 whole entry): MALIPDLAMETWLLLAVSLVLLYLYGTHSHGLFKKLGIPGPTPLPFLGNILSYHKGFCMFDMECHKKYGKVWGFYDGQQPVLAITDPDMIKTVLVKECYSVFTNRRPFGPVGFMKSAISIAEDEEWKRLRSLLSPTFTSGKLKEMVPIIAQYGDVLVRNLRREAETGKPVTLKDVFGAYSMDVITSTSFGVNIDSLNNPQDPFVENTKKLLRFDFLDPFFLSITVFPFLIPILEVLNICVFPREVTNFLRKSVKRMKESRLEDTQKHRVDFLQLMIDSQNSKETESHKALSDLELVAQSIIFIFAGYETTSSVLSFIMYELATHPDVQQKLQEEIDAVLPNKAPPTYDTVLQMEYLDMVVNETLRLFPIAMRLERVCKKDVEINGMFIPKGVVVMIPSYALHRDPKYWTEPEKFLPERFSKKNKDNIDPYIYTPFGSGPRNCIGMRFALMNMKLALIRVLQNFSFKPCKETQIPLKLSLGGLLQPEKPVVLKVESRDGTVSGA
Sequence of Cytochrome P450 2C19 (P33261 whole entry): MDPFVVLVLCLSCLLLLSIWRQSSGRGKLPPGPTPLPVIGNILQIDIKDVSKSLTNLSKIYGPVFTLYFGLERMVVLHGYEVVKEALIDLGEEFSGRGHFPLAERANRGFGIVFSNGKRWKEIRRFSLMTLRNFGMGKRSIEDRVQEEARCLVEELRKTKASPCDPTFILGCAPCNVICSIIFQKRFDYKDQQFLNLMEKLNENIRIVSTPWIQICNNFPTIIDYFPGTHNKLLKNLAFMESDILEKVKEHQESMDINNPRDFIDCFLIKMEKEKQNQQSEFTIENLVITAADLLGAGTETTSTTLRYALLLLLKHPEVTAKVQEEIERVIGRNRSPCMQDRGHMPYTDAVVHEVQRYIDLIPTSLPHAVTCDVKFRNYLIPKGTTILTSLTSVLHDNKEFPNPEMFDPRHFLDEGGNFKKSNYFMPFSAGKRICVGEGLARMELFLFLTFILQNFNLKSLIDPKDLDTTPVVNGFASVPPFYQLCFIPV

| Structure (SMILES) | CLint scaled [1] | also measured |
| --- | --- | --- |
| C[C@@]12COCCN1c1nc(-c3cccc4[nH]ccc34)ncc1N(C1CCOCC1)C2=O | 10 mL/min/kg | IC50 [2]: > 40 µM; IC50 [3]: > 40 µM; IC50 [4]: > 40 µM; IC50 [5]: > 40 µM; IC50 [6]: > 40 µM; IC50 [7]: > 40 µM |
| C[C@@]12COCCN1c1nc(-c3cccc4[nH]ccc34)ncc1N([C@H]1CC[C@H](O)CC1)C2=O | – | Fa [8]: 100%; Activity [9]: < 20%; inhibition in vivo at 2 mg/kg [10]: 100% |
| CC(=O)N1CCC(N2C(=O)[C@]3(C)COCCN3c3nc(-c4cccc5[nH]ccc45)ncc32)CC1 | 6 mL/min/kg | – |
| C[C@@]12COCCN1c1nc(-c3cccc4[nH]ccc34)ncc1N([C@H]1CC[C@@H](O)CC1)C2=O | 6 mL/min/kg | – |
| C[C@@]12COCCN1c1nc(-c3cnc4[nH]ccc4c3)ncc1N(C1CCN(S(C)(=O)=O)CC1)C2=O | 6 mL/min/kg | – |
| C[C@@]12COCCN1c1nc(-c3cnc4[nH]ccc4c3)ncc1N(C1CCOCC1)C2=O | 6 mL/min/kg | – |
| Cc1cccc2c(-c3ncc4c(n3)N3CCOC[C@@]3(C)C(=O)N4C3(CCCO)CC3)c[nH]c12 | 6 mL/min/kg | – |
| Cc1ccc(-c2ncc3c(n2)N2CCOC[C@@]2(C)C(=O)N3[C@H]2CC[C@H](O)CC2)c2cc[nH]c12 | 6 mL/min/kg | – |
| Cc1cccc2c(-c3ncc4c(n3)N3CCOC[C@@]3(C)C(=O)N4[C@H]3CC[C@H](O)CC3)c[nH]c12 | 7 mL/min/kg | – |
| CC(F)(F)CN1C(=O)[C@]2(C)COCCN2c2nc(-c3ccc(NC(=O)NC4CC4)cc3)ncc21 | – | CLint scaled [11]: < 10 mL/min/kg; Activity [12]: < 20%; inhibition in vivo at 30 mg/kg [13]: 100%; Ratio IC50 [14]: > 50 |
| Cc1cccc2c(-c3ncc4c(n3)N3CCOC[C@@]3(C)C(=O)N4[C@H]3CC[C@@H](O)CC3)c[nH]c12 | 7 mL/min/kg | – |
| C[C@@]12COCCN1c1nc(-c3cnc4[nH]ccc4c3)ncc1N(C1CCOC1)C2=O (mixture of isomers) | 12 mL/min/kg | – |
| Cc1ccc(-c2ncc3c(n2)N2CCOC[C@@]2(C)C(=O)N3[C@H]2CC[C@@H](O)CC2)c2cc[nH]c12 | 8 mL/min/kg | – |
| C[C@@]12COCCN1c1nc(-c3cnc4[nH]ccc4c3)ncc1N(C1(CCO)CC1)C2=O | 11 mL/min/kg | – |
| COCCCN1C(=O)[C@]2(C)COCCN2c2nc(-c3cnc4[nH]ccc4c3)ncc21 | 32 mL/min/kg | – |
